Counter-ions that a name gives are not always drawn.
What was measured:
Format in all cases: cell-based
[1] = system: A549 cells; experiment: Cell growth, CellTiter-Glo Luminescent Cell Viability Assay, A549; settings: Homo sapiens, 72 h incubation
Procedure, shortened: (§1)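 K562, A549 and HCT-116 cells in exponential growth exposed to inhibitors at varying concentrations for 72 h. Viability read as ATP luminescence (CellTiter-Glo, 10 min at RT after lysis); IC50 from dose-response, reported as ranges.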

[2] = system: HCT-116 cells; experiment: Cell growth, CellTiter-Glo Luminescent Cell Viability Assay, HCT-116; settings: Homo sapiens, 72 h incubation, read-out: IC50 HCT116
Procedure, shortened: as §1

[3] = system: K562 cells; experiment: Cell growth, CellTiter-Glo Luminescent Cell Viability Assay, K562; settings: Homo sapiens, 72 h incubation
Procedure, shortened: as §1

IC50 [1] [nM]	IC50 [2] [nM]	IC50 [3] [nM]	SMILES
≤ 1000	≤ 1000	≤ 1000	O=C(/C=C/c1cccc(/C=C/C(=O)N2CCCC(c3ccccc3F)C2)n1)NO (stereo not drawn) [Example 92, (E)-3-(6-{(E)-3-[3-(2-Fluoro-phenyl)-piperidin-1-yl]-3-oxo-propenyl}-pyridin-2-yl)-N-hydroxy-acrylamide hydrochloride]
≤ 1000	≤ 1000	≤ 1000	O=C(/C=C/c1cccc(/C=C/C(=O)N2CCCC(c3cccc(F)c3)C2)n1)NO (stereo not drawn) [Example 93, (E)-3-(6-{(E)-3-[3-(3-Fluoro-phenyl)-piperidin-1-yl]-3-oxo-propenyl}-pyridin-2-yl)-N-hydroxy-acrylamide hydrochloride]
1000 to 3000	≤ 1000	≤ 1000	O=C(/C=C/c1cccc(/C=C/C(=O)N2CCCC(c3nc(-c4ccc(F)cc4)no3)C2)n1)NO (stereo not drawn) [Example 94, (E)-3-[6-((E)-3-{3-[3-(4-Fluoro-phenyl)-[1,2,4]oxadiazol-5-yl]-piperidin-1-yl}-3-oxo-propenyl)-pyridin-2-yl]-N-hydroxy-acrylamide hydrochloride]
≥ 3000	1000 to 3000	1000 to 3000	O=C(/C=C/c1cccc(/C=C/C(=O)N2CCc3cc(-c4ccccc4)ccc3C2)n1)NO [Example 96, (E)-N-Hydroxy-3-{6-[(E)-3-oxo-3-(6-phenyl-3,4-dihydro-1H-isoquinolin-2-yl)-propenyl]-pyridin-2-yl}-acrylamide hydrochloride]
1000 to 3000	≤ 1000	≤ 1000	O=C(/C=C/c1cccc(/C=C/C(=O)N2CCc3nc(-c4ccccc4)sc3C2)n1)NO [Example 97, (E)-N-Hydroxy-3-{6-[(E)-3-oxo-3-(2-phenyl-6,7-dihydro-4H-thiazolo[5,4-c]pyridin-5-yl)-propenyl]-pyridin-2-yl}-acrylamide hydrochloride]

Second part, the compound before the results:

SMILES	IC50 [1] [nM]	IC50 [2] [nM]	IC50 [3] [nM]
O=C(/C=C/c1cccc(/C=C/C(=O)N2CCN(c3cccc(Cl)c3)CC2)c1)NO [Example 85, (E)-3-(3-{(E)-3-[4-(3-Chloro-phenyl)-piperazin-1-yl]-3-oxo-propenyl}-phenyl)-N-hydroxy-acrylamide hydrochloride]	≥ 3000	1000 to 3000	1000 to 3000
O=C(/C=C/c1cccc(/C=C/C(=O)N2CCC(Cc3ccccc3)CC2)c1)NO [Example 86, (E)-3-{3-[(E)-3-(4-Benzyl-piperidin-1-yl)-3-oxo-propenyl]-phenyl}-N-hydroxy-acrylamide]	≥ 3000	≥ 3000	≥ 3000
O=C(/C=C/c1cccc(/C=C/C(=O)N2CCN(c3ccccc3Cl)CC2)c1)NO [Example 87, (E)-3-(3-{(E)-3-[4-(2-Chloro-phenyl)-piperazin-1-yl]-3-oxo-propenyl}-phenyl)-N-hydroxy-acrylamide hydrochloride]	≥ 3000	1000 to 3000	1000 to 3000
N#Cc1ccc(N2CCN(C(=O)/C=C/c3cccc(/C=C/C(=O)NO)c3)CC2)cc1 [Example 88, (E)-3-(3-{(E)-3-[4-(4-Cyano-phenyl)-piperazin-1-yl]-3-oxo-propenyl}-phenyl)-N-hydroxy-acrylamide hydrochloride]	1000 to 3000	≤ 1000	≤ 1000
O=C(/C=C/c1cccc(/C=C/C(=O)N2CCC=C(c3ccccc3)C2)c1)NO [Example 89, (E)-N-Hydroxy-3-{3-[(E)-3-oxo-3-(5-phenyl-3,6-dihydro-2H-pyridin-1-yl)-propenyl]-phenyl}-acrylamide]	≥ 3000	≥ 3000	≥ 3000
O=C(/C=C/c1cccc(/C=C/C(=O)N2CCNC(c3ccccc3)C2)c1)NO (stereo not drawn) [Example 90, (E)-N-Hydroxy-3-{3-[(E)-3-oxo-3-(3-phenyl-piperazin-1-yl)-propenyl]phenyl}-acrylamide hydrochloride]	≥ 3000	1000 to 3000	1000 to 3000
O=C(/C=C/c1cccc(/C=C/C(=O)N2CCN(c3ccc(C(F)(F)F)cc3)CC2)c1)NO [Example 91, (E)-N-Hydroxy-3-(3-{(E)-3-oxo-3-[4-(4-trifluoromethyl-phenyl)-piperazin-1-yl]-propenyl}-phenyl)-acrylamide hydrochloride]	1000 to 3000	1000 to 3000	1000 to 3000
O=C(/C=C/c1cccc(/C=C/C(=O)N2CCC=C(c3ccccc3)C2)n1)NO [Example 95, (E)-N-Hydroxy-3-{6-[(E)-3-oxo-3-(5-phenyl-3,6-dihydro-2H-pyridin-1-yl)-propenyl]-pyridin-2-yl}-acrylamide hydrochloride]	≤ 1000	≤ 1000	≤ 1000
O=C(/C=C/c1cccc(/C=C/C(=O)N2CCCc3nc(-c4ccccc4)sc32)n1)NO [Example 98, (E)-N-Hydroxy-3-{6-[(E)-3-oxo-3-(2-phenyl-6,7-dihydro-5H-thiazolo[5,4-b]pyridin-4-A-propenyl]-pyridin-2-yl}-acrylamide trifluoroacetate]	1000 to 3000	≤ 1000	1000 to 3000

From US20110105474A1, “HETEROCYCLIC DERIVATIVES AS HDAC INHIBITORS” (DAC S.r.l., priority 2008, published 2011)
